In ChEMBL document CHEMBL2413072, “Synthesis and in vitro anticancer studies of novel C-2 arylidene congeners of lantadenes” (2013):

How the values were obtained:
Assay type in all cases: functional
HOP-92 = assay: Growth inhibition of human HOP92 cells by sulforhodamine B assay
CCRF-CEM = assay: Growth inhibition of human CCRF-CEM cells assessed as cell growth at 10^-8 M by sulforhodamine B assay; details: read-out: Activity
M14 = assay: Growth inhibition of human M14 cells assessed as cell growth at 10^-8 M by sulforhodamine B assay; details: read-out: Activity
NCI-H522 = assay: Growth inhibition of human NCI-H522 cells assessed as cell growth at 10^-7 M by sulforhodamine B assay; details: read-out: Activity
U-251 = assay: Growth inhibition of human U251 cells assessed as cell growth at 10^-7 M by sulforhodamine B assay; details: read-out: Activity
SF-268 = assay: Growth inhibition of human SF268 cells assessed as cell growth at 10^-8 M by sulforhodamine B assay; details: read-out: Activity
ACHN = assay: Growth inhibition of human ACHN cells by sulforhodamine B assay
SK-MEL-5 = assay: Growth inhibition of human SK-MEL-5 cells assessed as cell growth at 10^-7 M by sulforhodamine B assay; details: read-out: Activity
HL-60(TB) = assay: Growth inhibition of human HL-60(TB) cells by sulforhodamine B assay
MOLT-4 = assay: Growth inhibition of human MOLT4 cells by sulforhodamine B assay
K562 [1] = assay: Growth inhibition of human K562 cells assessed as cell growth at 10^-8 M by sulforhodamine B assay; details: read-out: Activity
DU-145 = assay: Growth inhibition of human DU145 cells assessed as cell growth at 10^-8 M by sulforhodamine B assay; details: read-out: Activity
RXF 393 = assay: Growth inhibition of human RXF393 cells by sulforhodamine B assay
UACC-257 = assay: Growth inhibition of human UACC257 cells assessed as cell growth at 10^-7 M by sulforhodamine B assay; details: read-out: Activity
SF-539 = assay: Growth inhibition of human SF539 cells assessed as cell growth at 10^-6 M by sulforhodamine B assay; details: read-out: Activity
NCI-H23 = assay: Growth inhibition of human NCI-H23 cells assessed as cell growth at 10^-8 M by sulforhodamine B assay; details: read-out: Activity
OVCAR-5 = assay: Growth inhibition of human OVCAR5 cells assessed as cell growth at 10^-4 M by sulforhodamine B assay; details: read-out: Activity
Malme-3M [2] = assay: Growth inhibition of human MALME-3M cells assessed as cell growth at 10^-4 M by sulforhodamine B assay; details: read-out: Activity
MDA-MB-231 = assay: Growth inhibition of human MDA-MB-231 cells assessed as cell growth at 10^-7 M by sulforhodamine B assay; details: read-out: Activity
SK-OV-3 = assay: Growth inhibition of human SKOV3 cells assessed as cell growth at 10^-4 M by sulforhodamine B assay; details: read-out: Activity
[3] = Growth inhibition of human Hs 578T cells assessed as cell growth at 10^-8 M by sulforhodamine B assay; details: read-out: Activity
SR = assay: Growth inhibition of human SR cells assessed as cell growth at 10^-4 M by sulforhodamine B assay; details: read-out: Activity
NCI-H322M [4] = assay: Growth inhibition of human NCI-H322M cells by sulforhodamine B assay
NCI-H226 = assay: Growth inhibition of human NCI-H226 cells assessed as cell growth at 10^-8 M by sulforhodamine B assay; details: read-out: Activity
SF-295 [5] = assay: Growth inhibition of human SF295 cells by sulforhodamine B assay
SF-295 [6] = assay: Growth inhibition of human SF295 cells assessed as cell growth at 10^-8 M by sulforhodamine B assay; details: read-out: Activity
K562 [7] = assay: Growth inhibition of human K562 cells assessed as cell growth at 10^-4 M by sulforhodamine B assay; details: read-out: Activity
OVCAR-4 [8] = assay: Growth inhibition of human OVCAR4 cells assessed as cell growth at 10^-6 M by sulforhodamine B assay; details: read-out: Activity
UACC-62 = assay: Growth inhibition of human UACC62 cells assessed as cell growth at 10^-8 M by sulforhodamine B assay; details: read-out: Activity
LOX IMVI = assay: Growth inhibition of human LOXIMVI cells by sulforhodamine B assay
[9] = Growth inhibition of human NCI-ADR-RES cells assessed as cell growth at 10^-7 M by sulforhodamine B assay; details: read-out: Activity
KM12 = assay: Growth inhibition of human KM12 cells assessed as cell growth at 10^-8 M by sulforhodamine B assay; details: read-out: Activity
OVCAR-4 [10] = assay: Growth inhibition of human OVCAR4 cells assessed as cell growth at 10^-8 M by sulforhodamine B assay; details: read-out: Activity
Malme-3M [11] = assay: Growth inhibition of human MALME-3M cells assessed as cell growth at 10^-8 M by sulforhodamine B assay; details: read-out: Activity
UO-31 = assay: Growth inhibition of human UO31 cells assessed as cell growth at 10^-4 M by sulforhodamine B assay; details: read-out: Activity
HCT-116 [12] = assay: Growth inhibition of human HCT116 cells assessed as cell growth at 10^-4 M by sulforhodamine B assay; details: read-out: Activity
HCT-116 [13] = assay: Growth inhibition of human HCT116 cells assessed as cell growth at 10^-8 M by sulforhodamine B assay; details: read-out: Activity
NCI-H322M [14] = assay: Growth inhibition of human NCI-H322M cells assessed as cell growth at 10^-7 M by sulforhodamine B assay; details: read-out: Activity
HCT-15 = assay: Growth inhibition of human HCT15 cells assessed as cell growth at 10^-6 M by sulforhodamine B assay; details: read-out: Activity
[15] = read-out: LC50 (the source's name)
[16] = read-out: pLC50 (the source's name) (converted)

For `C/C=C(/C)C(=O)O[C@@H]1CC(C)(C)C[C@H]2C3=CC[C@@H]4[C@@]5(C)CCC(=O)C(C)(C)[C@@H]5CC[C@@]4(C)[C@]3(C)CC[C@@]12C(=O)O` [LANTADENE A], the GI50 (HOP-92; read-out: GI50) was 1.19 µM, the CC50 (HOP-92; [15]) was > 100 µM and the TGI (HOP-92; read-out: TGI) was 5.36 µM. The GI50 (HOP-92; read-out: pGI50 (converted)) was 1.2 µM, the CC50 (HOP-92; [16]) was > 100 µM and the TGI (HOP-92; read-out: pTGI (converted)) was 5.37 µM. For the same compound, the growth at 0.01 µM (CCRF-CEM) was 98%, the growth at 0.01 µM (M14) was 96% and the growth at 0.1 µM (NCI-H522) was 97%. For the same compound, the growth at 0.1 µM (U-251) was 94%, the growth at 0.01 µM (SF-268) was 100% and the GI50 (ACHN; read-out: GI50) was 4.94 µM. For the same compound, the CC50 (ACHN; [15]) was > 100 µM, the TGI (ACHN; read-out: TGI) was > 100 µM and the GI50 (ACHN; read-out: pGI50 (converted)) was 4.9 µM. For the same compound, the CC50 (ACHN; [16]) was > 100 µM, the TGI (ACHN; read-out: pTGI (converted)) was > 100 µM and the growth at 0.1 µM (SK-MEL-5) was 83%. For the same compound, the GI50 (HL-60(TB); read-out: GI50) was 1.87 µM, the CC50 (HL-60(TB); [15]) was > 100 µM and the TGI (HL-60(TB); read-out: TGI) was 5.26 µM. The GI50 (HL-60(TB); read-out: pGI50 (converted)) was 1.86 µM, the CC50 (HL-60(TB); [16]) was > 100 µM and the TGI (HL-60(TB); read-out: pTGI (converted)) was 5.25 µM. The GI50 (MOLT-4; read-out: GI50) was 3.34 µM, the CC50 (MOLT-4; [15]) was > 100 µM and the TGI (MOLT-4; read-out: TGI) was > 100 µM. The GI50 (MOLT-4; read-out: pGI50 (converted)) was 3.31 µM, the CC50 (MOLT-4; [16]) was > 100 µM and the TGI (MOLT-4; read-out: pTGI (converted)) was > 100 µM. It also gave a growth at 0.01 µM (K562 [1]) of 110%, a growth at 0.01 µM (DU-145) of 104% and a GI50 (RXF 393; read-out: GI50) of 2.41 µM. For the same compound, the CC50 (RXF 393; [15]) was > 100 µM, the TGI (RXF 393; read-out: TGI) was 9.93 µM and the GI50 (RXF 393; read-out: pGI50 (converted)) was 2.4 µM. The CC50 (RXF 393; [16]) was > 100 µM, the TGI (RXF 393; read-out: pTGI (converted)) was 10 µM and the growth at 0.1 µM (UACC-257) was 93%. The growth at 1 µM (SF-539) was 106%, the growth at 0.01 µM (NCI-H23) was 100% and the growth at 100 µM (OVCAR-5) was 42%. It also gave a growth at 100 µM (Malme-3M [2]) of 17%, a growth at 0.1 µM (MDA-MB-231) of 101% and a growth at 100 µM (SK-OV-3) of 32%. It also gave a growth at 0.01 µM [3] of 97%, a growth at 100 µM (SR) of 12% and a GI50 (NCI-H322M [4]; read-out: GI50) of 3.94 µM. The LC50 (50% lethal concentration) (NCI-H322M [4]; read-out: LC50) was > 100 µM, the TGI (NCI-H322M [4]; read-out: TGI) was > 100 µM and the GI50 (NCI-H322M [4]; read-out: pGI50 (converted)) was 3.98 µM. For the same compound, the LC50 (50% lethal concentration) (NCI-H322M [4]; read-out: pLC50 (converted)) was > 100 µM, the TGI (NCI-H322M [4]; read-out: pTGI (converted)) was > 100 µM and the growth at 0.01 µM (NCI-H226) was 85%. For the same compound, the GI50 (SF-295 [5]; read-out: GI50) was 2.77 µM, the CC50 (SF-295 [5]; [15]) was > 100 µM and the TGI (SF-295 [5]; read-out: TGI) was 15.4 µM. For the same compound, the GI50 (SF-295 [5]; read-out: pGI50 (converted)) was 2.75 µM, the CC50 (SF-295 [5]; [16]) was > 100 µM and the TGI (SF-295 [5]; read-out: pTGI (converted)) was 15.5 µM. It also gave a growth at 0.01 µM (SF-295 [6]) of 96%, a growth at 100 µM (K562 [7]) of 28% and a growth at 1 µM (OVCAR-4 [8]) of 86%. For the same compound, the growth at 0.01 µM (UACC-62) was 97%, the GI50 (LOX IMVI; read-out: GI50) was 7.8 µM and the CC50 (LOX IMVI; [15]) was > 100 µM. For the same compound, the TGI (LOX IMVI; read-out: TGI) was > 100 µM, the GI50 (LOX IMVI; read-out: pGI50 (converted)) was 7.76 µM and the CC50 (LOX IMVI; [16]) was > 100 µM. The TGI (LOX IMVI; read-out: pTGI (converted)) was > 100 µM, the growth at 0.1 µM [9] was 104% and the growth at 0.01 µM (KM12) was 103%. The growth at 0.01 µM (OVCAR-4 [10]) was 95%, the growth at 0.01 µM (Malme-3M [11]) was 98% and the growth at 100 µM (UO-31) was 6%. The growth at 100 µM (HCT-116 [12]) was 11%, the growth at 0.01 µM (HCT-116 [13]) was 94% and the growth at 0.1 µM (NCI-H322M [14]) was 97%. It also gave a growth at 1 µM (HCT-15) of 87%.
